Patent US5637609A, “2-phenylpyrrole derivatives as dopamine D3 receptor antagonists” (SmithKline Beecham plc, priority 1993, dated 1997)
Structures can show the parent of a compound that is named as a salt.

Target: T1, human D3 dopamine receptors (Homo sapiens, UniProt P35462)
T1 construct: expressed in transfected cells; host or cells: CHO cells
Test: [125I] iodosulpride displacement binding to cloned human D3 dopamine receptors expressed in CHO cells
Conditions: displacement of 0.1 nM [125I] iodosulpride, CHO cell membranes, 30 min at 37° C.; read-out: IC50 values at the human D3 receptor
Experimental: The inhibition constants (Ki) of test compounds for displacement of [^125 I] iodosulpride binding to human D2 and D3 dopamine receptors expressed in CHO cells have been determined. […] Cultures were grown as monolayers or in suspension in standard cell culture media. Cells were recovered by scraping (from monolayers) or by centrifugation (from suspension cultures), and were washed two or three times by suspension in phosphate buffered saline followed by collection by centrifugation. Cell pellets were stored frozen at -40° C. Crude cell membranes were prepared by homogenisation followed by high-speed centrifugation, and characterisation of cloned receptors achieved by radioligand binding.
Cell pellets were gently thawed at room temperature, and resuspended in about 20 volumes of ice-cold 50 mM Tris salts (pH 7.4@37° C.), 20 mM EDTA, 0.2M sucrose. The suspension was homogenised using an Ultra-Turrax at full speed for 15 sec. The homogenate was centrifuged at 18,000 r.p.m for 20 min at 4° C. in a Sorvall RC5C centrifuge. […] The final pellet was resuspended in 50 mM Tris salts (pH 7.4@37° C.), and the protein content determined using bovine serum albumin as a standard (Bradford, M. M. (1976) Anal. Biochem. 72, 248-254). […]
Competition curves were analysed simultaneously whenever possible using non-linear least-squares fitting procedures, capable of fitting one, two or three site models.

T1 sequence (P35462 whole entry): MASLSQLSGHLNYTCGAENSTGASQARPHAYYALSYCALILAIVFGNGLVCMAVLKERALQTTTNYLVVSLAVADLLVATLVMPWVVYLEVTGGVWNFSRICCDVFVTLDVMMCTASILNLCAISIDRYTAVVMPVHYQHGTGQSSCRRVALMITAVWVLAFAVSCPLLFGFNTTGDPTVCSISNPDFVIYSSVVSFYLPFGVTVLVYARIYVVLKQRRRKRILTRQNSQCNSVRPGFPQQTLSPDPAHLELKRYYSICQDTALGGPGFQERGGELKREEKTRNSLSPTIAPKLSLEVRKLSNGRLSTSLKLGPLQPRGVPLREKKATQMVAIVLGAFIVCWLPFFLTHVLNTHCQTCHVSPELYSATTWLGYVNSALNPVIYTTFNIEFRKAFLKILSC

IC50 [nM] | Compound
< 5 | CCN(Cc1ccc(-c2cc(S(=O)(=O)CC)ccc2OC)[nH]1)C1CCCc2ccccc21 (centres unmarked) [Example 1, 2-(5-Ethylsulfonyl-2-methoxyphenyl)-5-[N-ethyl-N-1-(1,2,3,4-tetrahydronaphthyl)aminomethyl]-1H-pyrrole hydrochloride]
< 5 | CCN(Cc1ccc(-c2cc(S(=O)(=O)CC)ccc2OC)[nH]1)C1CCc2ccccc21 (centres unmarked) [Example 2, 2-(5-Ethylsulfonyl-2-methoxyphenyl)-5-[N-ethyl-N-1-(indanyl)aminomethyl]-1H-pyrrole, hydrochloride]
